# US20140024700A1, “BLOOD-BORNE MIRNAS AS SURROGATE MARKERS OF DRUG EFFICACY FOR CARDIAC CONDITIONS” (miRagen Therapeutics, Inc., priority 2010, published 2014)
# “Also recorded” adds a separate entry of the source.
# Tests used:
# Dahl salt-sensitive rats [1] = assay: Dahl salt-sensitive rat heart failure model, 8% NaCl high-salt diet (Example 1); format: in vivo; conditions: 8% NaCl HS diet
# Description: To determine the therapeutic potential of miR-208a inhibition in vivo, we designed an antimiR targeting bases 2 to 17 of the 5′ region of mature miR-208a and containing a combination of LNA and DNA linked by phosphorothioate bonds. The sequence of the antimiR-208a, which is referred to as M-10101, was 5′-[…]-3′ (SEQ ID NO: 12). To test the therapeutic relevance of miR-208a inhibition, we used Dahl salt-sensitive rats that were either fed a low-salt (LS) diet (0.25% NaCl) or a high-salt (HS) diet (8.0% NaCl) starting at 8 weeks of age. Initiation of an HS diet in Dahl salt-sensitive rats results in chronic hypertension, which progresses to a model of congestive heart failure associated primarily with diastolic dysfunction (Rodenbaugh et al. (2007) Am J Physiol Heart Circ Physiol. 293, H1705-H1713). After one week on the HS diet, rats were administered saline, 25 mg/kg antimiR-208a, or 25 mg/kg scrambled control oligo subcutaneously every two weeks. […] As an indication of health, we monitored body weight during the duration of the study.
# The LNA-antimiR oligonucleotides were synthesized at miRagen Therapeutics, Inc. as unconjugated and fully phosphorothiolated oligonucleotides perfectly complementary to the 5′ region of the mature miR-208a sequence. The LNA control oligonucleotide consisted of a sequence directed against a C. elegans specific miRNA. […]
# Dahl salt-sensitive rats [2] = assay: Dahl salt-sensitive rat model, 4% NaCl diet: body weight, echocardiography, histology (Example 1); format: in vivo; conditions: 4% NaCl HS diet
# Procedure: To obtain additional insight into the basis for the protective effects seen in response to antimiR-208a, subsequent studies were done using a 4.0% NaCl diet, during which the rats received saline, 5 or 25 mg/kg of antimiR-208a, or 25 mg/kg of antimiR control every 2 weeks.
# The LNA-antimiR oligonucleotides were synthesized at miRagen Therapeutics, Inc. as unconjugated and fully phosphorothiolated oligonucleotides perfectly complementary to the 5′ region of the mature miR-208a sequence. The LNA control oligonucleotide consisted of a sequence directed against a C. elegans specific miRNA. Unless otherwise indicated, in vivo delivery of the oligonucleotide chemistries was achieved by low pressure intravenous (i.v.) injections via the tail vein or subcutaneous injections of either adult male C56B16 mice or adult male Dahl Salt-sensitive rats (Harlan, Indianapolis). […] Tissue samples were collected at the indicated timepoints for molecular or histological examination. Dahl rats were maintained on 0.25 NaCl or placed on 4% or 8% NaCl diet at 8 weeks of age (Harlan, Indianapolis).
# plasma miRNAs [3] = assay: Real-time PCR of plasma miRNAs, 4% NaCl diet (Example 1); format: in vivo, rat
# Description: Detection of miRNAs in plasma during various disease settings is showing increasing diagnostic promise (Cortez M A and Calin G A (2009) Expert Opin Biol Ther. 9, 703-711). To determine whether there is a specific miRNA that correlates with antimiR-208a efficacy, we examined a panel of muscle related miRNAs during HS treatment.
# (§1) RNA from plasma samples was isolated using Trizol LS Reagent (Invitrogen), using the manufacturer's protocol. Prior to RNA isolation, […] of two different synthetic C. elegans miRNA sequences were added to serve as internal controls for normalization of target miRNAs. The C. elegans sequences used were cel-miR-2 ([…], SEQ ID NO:5), and cel-lin-4 ([…]; SEQ ID NO:6) (Dharmacon). The final RNA pellet was re-suspended in a final volume equal to the initial plasma volume and 5 μl was used for subsequent RT-PCR reactions, as described above.
# miR-208a, Myh6, Myh7 = assay: Cardiac tissue markers by Taqman RT-PCR, 4% NaCl diet (Example 2); format: in vivo, rat; conditions: 25 mg/kg sc every 2 weeks
# Procedure: The flowing experimental groups were tested:
# Following catheter implant surgery, high-salt diet was initiated. […] Animals were sacrificed 8 weeks after the initial injection.
# Tissue RNA was isolated using standard Trizol RNA isolation.
# Dahl salt-sensitive rats [4] = assay: Dahl salt-sensitive rat model, 6% NaCl diet: body weight and survival (Example 3); format: in vivo
# [5] = system: miR-208a, miR-499, miR-208b, Myh6, Myh7b, Myh7, Dynlt1, Vcpip, Tegt; assay: Cardiac tissue real-time PCR, 6% NaCl diet (Example 3); format: in vivo, rat
# Procedure: (§2) One week following the initiation of the 6.0% NaCl diet, rats were dosed subcutaneously (sc) with saline or oligonucleotides (M−10101, 5′-CTTTTTGCTCGTCTTA-3′ (SEQ ID NO: 12) or M-10591, 5′-TCCTAGAAAGAGTAGA-3′ (SEQ ID NO:13)) at 25 mg/kg every 2 weeks. Captopril or water were dosed daily by oral gavage. Echocardiography was performed every 2 weeks starting one week post […] dosing. The Captopril dose for rat was selected to match the standard human dose in man.
# For in vivo real-time PCR analysis, RNA was extracted from cardiac tissue using Trizol (Invitrogen) after which two μg RNA from each tissue sample was used to generate cDNA using Super Script II reverse transcriptase per manufacturer's specifications (Invitrogen). To detect the level of miR-208 RT-PCR was performed using the Taqman MicroRNA assay (Applied Biosystems, ABI) according the manufacturer's recommendations, using 10-100 ng of total RNA. The expression of a subset of genes was analyzed by quantitative real time PCR using Taqman probes purchased from AB.
# plasma miRNAs [6] = assay: Real-time PCR of plasma miRNAs, 6% NaCl diet (Example 3); format: in vivo, rat
# Procedure: as §2
# as §1, with “Quantitative real-time PCR analysis from plasma. RNA from” for “RNA from”
# [7] = 8 weeks, histological quantification, listed as antimiR-208a
# [8] = 8 weeks after HS diet, vs HS/saline, listed as antimiR-208a
# [9] = listed as antimiR-208a, 25 mg/kg
# [10] = M-10101 25 mg/kg sc, Captopril po daily
substance,measurement,setting,value
"M-10101: antimiR targeting bases 2 to 17 of mature miR-208a, LNA and DNA linked by phosphorothioate bonds; 5′-CTTTTTGCTCGTCTTA-3′ (SEQ ID NO: 12) (all phosphorothioate, sugars by position and methylation of C not given here; LNA/DNA mixmer; listed as Homo sapiens)",Food intake,Dahl salt-sensitive rats [1],comparable ingestion between all HS-fed groups
same,Survival (Kaplan-Meier),"Dahl salt-sensitive rats [1]; 25 mg/kg sc every 2 weeks starting 1 week after HS diet, listed as antimiR-208a, 25 mg/kg",significantly alleviated these symptoms; also recorded: significantly improved
same,Cardiomyocyte hypertrophy (cardiomyocyte size),Dahl salt-sensitive rats [2]; [7],significant reduction in cardiomyocyte hypertrophy; also recorded: significantly less hypertrophy
same,"Periarteriolar (perivascular) fibrosis, Picrosirius Red staining",Dahl salt-sensitive rats [2]; [7],reduced periarteriolar fibrosis; also recorded: significantly less hypertrophy and fibrosis
same,Body weight gain,"Dahl salt-sensitive rats [2]; 5 or 25 mg/kg every 2 weeks, listed as antimiR-208a",maintained their increase in weight gain; also recorded: sufficient to maintain weight gain comparable to that in animals on a normal diet
same,"Isovolumic relaxation time (IVRT), echocardiography",Dahl salt-sensitive rats [2]; [8],significant dose-dependent reduction; also recorded: significantly improved
same,Mitral valve early to active filling velocity ratio (MV E/A),Dahl salt-sensitive rats [2]; [8],normalization; also recorded: significantly improved
same,"Isovolumic relaxation time, time-dependent echocardiography","Dahl salt-sensitive rats [2]; every 2 weeks after HS diet, vs HS/saline, data not shown",significant reductions in isovolumic relaxation time
same,Plasma miR-499,"plasma miRNAs [3]; 8 weeks after start of 4% HS diet, 7 weeks after onset of antimiR treatment, listed as antimiR-208a",significantly reduced; also recorded: significantly lowers
same,Plasma miR-423-5p,"plasma miRNAs [3]; 8 weeks after start of 4% HS diet, listed as antimiR-208a",reduced; also recorded: decrease
same,Plasma miR-1,plasma miRNAs [3]; Dahl hypertensive rats,no response
same,Plasma miR-208a,plasma miRNAs [3]; Dahl hypertensive rats,no response
same,Myh7 expression in cardiac tissue,"miR-208a, Myh6, Myh7; listed as AntimiR-208a, 25 mg/kg",blunted the hypertension-induced increase in Myh7 expression
same,Myh6 expression in cardiac tissue,"miR-208a, Myh6, Myh7; [9]",prevented the high-salt diet-induced decrease in Myh6 expression; also recorded: prevents this decrease
same,Myh7 expression in cardiac tissue,"miR-208a, Myh6, Myh7; [9]",reduces this increase
same,miR-208a in cardiac tissue,"miR-208a, Myh6, Myh7; vs HS/Saline",greater inhibition of miR-208a
same,Survival (Kaplan-Meier),"Dahl salt-sensitive rats [4]; M-10101 25 mg/kg sc every 2 weeks, water po, 25 mg/kg",significantly improved survival; also recorded: No mortality was observed
same,Body weight,Dahl salt-sensitive rats [4]; oligonucleotide 25 mg/kg sc every 2 weeks,partially prevented the body weight loss
same,"Expression of direct target genes of miR-208a (Dynlt1, Vcpip, Tegt) in cardiac tissue",[5]; 25 mg/kg sc,increase in expression
same,miR-208a cardiac level,[5]; 25 mg/kg sc every 2 weeks,further reduced
same,miR-208b cardiac level,[5]; 25 mg/kg sc every 2 weeks,reduction of cardiac levels
same,miR-499 cardiac level,[5]; 25 mg/kg sc every 2 weeks,reduction of cardiac levels
same,Myh7b levels in the heart,[5]; [10],specifically reduced
same,αMHC (Myh6) in the heart (reduced by HS diet),[5]; [10],normalized
same,βMHC (Myh7) expression (increase induced by HS diet),"[5]; M-10101 25 mg/kg sc, Captopril po daily, listed as antimiR-208a",more effective; also recorded: not significantly different from animals on the LS diet
same,Plasma miR-19b,plasma miRNAs [6],significantly increased
same,Plasma miR-223,plasma miRNAs [6],more significant decrease
same,"Plasma miR-423-5p, miR-106b, miR-16, miR-92a, miR-378, miR-210, miR-378*, miR-20b and miR-93",plasma miRNAs [6],decreased
